Results: ChEMBL document CHEMBL5620423, “Highly-tumor-targeted PAD4 inhibitors with PBA modification inhibit tumors in vivo by specifically inhibiting the PAD4-H3cit-NETs pathway in neutrophils” (Eur J Med Chem, 2023)
pIC50: −log10 of the molar value. One block for each molecule: values may come before it. Activity calls are given as the source filed them. The calls are words filed in the database; no cut-off is given here.

Key:
4T1 [1] = assay: Cytotoxicity against mouse 4T1 cells assessed as reduction in cell viability measured after 48 hrs by MTT assay; details: 4T1, 48 h
Sarcoma-180 [2] = assay: Antitumor activity against Sarcoma-180 mouse model assessed as tumor weight at 10 umol/kg (reference value: 1.65 +/-0.2 gms); assay type: functional; details: dose 10 µmol/kg
Sarcoma-180 [3] = assay: Antitumor activity against Sarcoma-180 mouse model assessed as inhibition of tumor growth at 10 umol/kg; assay type: functional
Lewis lung carcinoma = assay: Cytotoxicity against mouse Lewis lung carcinoma cells assessed as effect on cell viability at 3.125 to 100 uM measured after 48 hrs by MTT assay; assay type: functional, cell-based; details: dose 3.125-100 µM
4T1 [4] = assay: Cytotoxicity against mouse 4T1 cells assessed as effect on cell viability at 3.125 to 100 uM measured after 48 hrs by MTT assay; assay type: functional, cell-based; details: dose 3.125-100 µM
L02 = assay: Cytotoxicity against human HL7702 cells assessed as effect on cell viability at 3.125 to 100 uM measured after 48 hrs by MTT assay; assay type: toxicity, cell-based; details: l02, 48 h, dose 3.125-100 µM
[5] = Drug uptake in human HL7702 cells assessed as green fluorescence intensity at 50 uM measured after 48 hrs by Hoechst33342 staining based confocal laser microscopy; assay type: ADME, cell-based; details: l02, 48 h
[6] = Drug uptake in mouse 4T1 cells assessed as layer of green fluorescence around the cell membrane at 50 uM measured after 48 hrs by Hoechst33342 staining based confocal laser microscopy; assay type: ADME; details: 4t1, 48 h
4T1 [7] = assay: Induction of cell morphological changes in mouse 4T1 cells assessed as increase in number of cells with shrank mitochondria measured after 48 hrs by transmission electron microscopy; assay type: functional, cell-based
4T1 [8] = assay: Induction of cell morphological changes in mouse 4T1 cells assessed as rounded tumor cells at 50 uM measured after 48 hrs by scanning electron microscopy; assay type: functional, cell-based
4T1 [9] = assay: Induction of cell morphological changes in mouse 4T1 cells assessed as reduction in pseudopodia on cell surface at 50 uM measured after 48 hrs by scanning electron microscopy; assay type: functional, cell-based
[10] = Drug uptake in mouse 4T1 cells assessed as increase in green fluorescence intensity at 50 uM measured for 24 hrs flow cytometry; assay type: ADME, cell-based; details: 4t1, 24 h
[11] = target: Protein-arginine deiminase type-4 (Mus musculus) (UniProt Q9Z183); assay: Inhibition of PAD4 in mouse bone marrow neutrophils assessed as reduction in H3 cit expression by measuring red filamentous histone structure at 50 uM measured after 48 hrs by Hoechst33342 staining based confocal laser scanning microscopy; assay type: cell-based; details: Neutrophil
Protein-arginine deiminase type-4 (Mus musculus), sequence (Q9Z183 whole entry): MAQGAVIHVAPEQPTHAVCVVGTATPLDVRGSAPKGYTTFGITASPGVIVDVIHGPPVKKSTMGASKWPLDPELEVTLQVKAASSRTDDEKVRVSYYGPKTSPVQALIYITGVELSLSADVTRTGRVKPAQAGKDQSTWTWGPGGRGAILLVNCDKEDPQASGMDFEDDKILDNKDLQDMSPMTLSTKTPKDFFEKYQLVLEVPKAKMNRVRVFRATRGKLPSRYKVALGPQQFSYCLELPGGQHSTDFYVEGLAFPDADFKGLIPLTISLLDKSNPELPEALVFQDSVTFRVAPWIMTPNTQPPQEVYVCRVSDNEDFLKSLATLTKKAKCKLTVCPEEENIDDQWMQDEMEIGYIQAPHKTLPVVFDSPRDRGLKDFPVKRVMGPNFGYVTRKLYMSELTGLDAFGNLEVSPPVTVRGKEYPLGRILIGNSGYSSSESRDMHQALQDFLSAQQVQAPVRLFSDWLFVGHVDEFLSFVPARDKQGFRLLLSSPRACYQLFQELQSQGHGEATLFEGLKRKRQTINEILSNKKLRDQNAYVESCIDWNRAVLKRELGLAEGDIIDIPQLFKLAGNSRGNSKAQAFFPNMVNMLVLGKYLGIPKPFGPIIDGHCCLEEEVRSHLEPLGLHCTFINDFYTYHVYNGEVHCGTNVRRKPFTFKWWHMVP

[12] = Drug uptake in mouse 4T1 cells assessed as drug localization in cytoplasm at 50 uM measured after 48 hrs by Hoechst33342 staining based confocal laser scanning microscopy; assay type: ADME, cell-based; details: 4t1, 48 h
[13] = Drug uptake in mouse bone marrow neutrophils assessed as drug localization in nucleus at 50 uM measured after 48 hrs by Hoechst33342 staining based confocal laser scanning microscopy; assay type: ADME, cell-based; details: neutrophil
[14] = target: Protein-arginine deiminase type-4 (Mus musculus) (UniProt Q9Z183); assay: Inhibition of PAD4 in mouse 4T1 cells assessed as reduction in citrullinated histone level at 100 uM measured after 48 hrs by Hoechst33342 staining based confocal laser scanning microscopy; assay type: cell-based
[15] = target: Protein-arginine deiminase type-4 (Mus musculus) (UniProt Q9Z183); assay: Inhibition of PAD4 in mouse bone marrow neutrophils assessed as reduction in citrullinated histone level at 100 uM measured after 48 hrs by Hoechst33342 staining based confocal laser scanning microscopy; assay type: cell-based; details: Neutrophil
4T1 [16] = assay: Antitumor activity against mouse 4T1 cells xenografted in BALB/c mouse assessed as reduction in tumor volume at 2 to 10 umol/kg, iv for 21 days; assay type: functional, organism-based; details: dose 2-10 µmol/kg, time 21.0 day
4T1 [17] = assay: Antitumor activity against mouse 4T1 cells xenografted in BALB/c mouse assessed as reduction in tumor weight at 10 umol/kg, iv for 21 days; assay type: functional, organism-based; details: dose 10.0 µmol/kg, time 21.0 day
[18] = Toxicity in BALB/c mouse xenografted with mouse 4T1 cells assessed as decrease in body weight at 2 to 10 umol/kg, iv measured after 9 to 15 days; assay type: organism-based; details: in vivo, dose lower 2 µmol/kg, time lower 9 day, dose upper 10 µmol/kg, time upper 15 day
4T1 [19] = assay: Anti-metastatic activity against mouse 4T1 cells xenografted in BALB/c mouse assessed as reduction in number of lung metastatic tumor nodules at 5 to 10 umol/kg, iv for 21 days; assay type: functional, organism-based; details: dose 5-10 µmol/kg, time 21.0 day
4T1 [20] = assay: Anti-metastatic activity against mouse 4T1 cells assessed as reduction in tumor cell lesions in lungs at 10 umol/kg, iv for 21 days by Hematoxylin-Eosin staining; assay type: functional, organism-based; details: dose 10.0 µmol/kg, time 21.0 day
4T1 [21] = assay: Anti-metastatic activity against mouse 4T1 cells assessed as reduction in tumor cell lesions in lungs at 5 umol/kg, iv for 21 days by Hematoxylin-Eosin staining; assay type: functional, organism-based; details: dose 5.0 µmol/kg, time 21.0 day
4T1 [22] = assay: Anti-metastatic activity against mouse 4T1 cells assessed as reduction in inflammatory cell infiltration in lungs at 5 umol/kg, iv for 21 days by Hematoxylin-Eosin staining; assay type: functional, organism-based; details: dose 5.0 µmol/kg, time 21.0 day
4T1 [23] = assay: Anti-metastatic activity against mouse 4T1 cells assessed as reduction in tumor cell lesions in lungs at 2 umol/kg, iv for 21 days by Hematoxylin-Eosin staining; assay type: functional, organism-based; details: dose 2.0 µmol/kg, time 21.0 day
4T1 [24] = assay: Anti-metastatic activity against mouse 4T1 cells assessed as reduction in neutrophil extranuclear traps formation by measuring decrease in Ly6G-labeled neutrophils in tumor at 10 umol/kg, iv for 21 days by immunofluorescence analysis; assay type: functional, organism-based; details: dose 10.0 µmol/kg, time 21.0 day
4T1 [25] = assay: Anti-metastatic activity against mouse 4T1 cells assessed as reduction in neutrophil extranuclear traps formation by measuring decrease in H3cit positivity in tumor at 10 umol/kg, iv for 21 days by immunofluorescence analysis; assay type: functional, organism-based; details: dose 10.0 µmol/kg, time 21.0 day
[26] = Hepatotoxicity in BALB/c mouse xenografted with mouse 4T1 cells assessed as serum ALT level at 2 to 10 umol/kg, iv for 21 days; assay type: toxicity, organism-based; details: in vivo, 504 h, dose 2-10 µmol/kg, time 21 day
[27] = Hepatotoxicity in BALB/c mouse xenografted with mouse 4T1 cells assessed as serum AST level at 2 to 10 umol/kg, iv for 21 days; assay type: toxicity, organism-based; details: in vivo, 504 h, dose 2-10 µmol/kg, time 21 day
[28] = Nephrotoxicity in BALB/c mouse xenografted with mouse 4T1 cells assessed as serum creatinine level at 2 to 10 umol/kg, iv for 21 days; assay type: toxicity, organism-based; details: in vivo, 504 h, dose 2-10 µmol/kg, time 21 day
[29] = Nephrotoxicity in BALB/c mouse xenografted with mouse 4T1 cells assessed as serum BUN level at 2 to 10 umol/kg, iv for 21 days; assay type: toxicity, organism-based; details: in vivo, 504 h, dose 2-10 µmol/kg, time 21 day
[30] = Toxicity in BALB/c mouse xenografted with mouse 4T1 cells assessed as heart morphological changes at 10 umol/kg, iv for 21 days by Hematoxylin-Eosin staining based analysis; assay type: organism-based; details: in vivo, 504 h, dose 10 µmol/kg, time 21 day
[31] = Toxicity in BALB/c mouse xenografted with mouse 4T1 cells assessed as liver morphological changes at 10 umol/kg, iv for 21 days by Hematoxylin-Eosin staining based analysis; assay type: organism-based; details: in vivo, 504 h, dose 10 µmol/kg, time 21 day
[32] = Toxicity in BALB/c mouse xenografted with mouse 4T1 cells assessed as spleen morphological changes at 10 umol/kg, iv for 21 days by Hematoxylin-Eosin staining based analysis; assay type: organism-based; details: in vivo, 504 h, dose 10 µmol/kg, time 21 day
[33] = Toxicity in BALB/c mouse xenografted with mouse 4T1 cells assessed as kidney morphological changes at 10 umol/kg, iv for 21 days by Hematoxylin-Eosin staining based analysis; assay type: organism-based; details: in vivo, 504 h, dose 10 µmol/kg, time 21 day
Mus musculus [34] = assay: Immunomodulatory activity in iv dosed BALB/c mouse xenografted with mouse 4T1 cells assessed as increase in normal neutrophils in tumor tissues administered for 21 days by CyTOF analysis; assay type: functional, organism-based; details: time 21.0 day
Mus musculus [35] = assay: Immunomodulatory activity in iv dosed BALB/c mouse xenografted with mouse 4T1 cells assessed as decrease in proportion of aged neutrophils (CD194hi|CD62Llo) in tumor tissues administered for 21 days by CyTOF analysis; assay type: functional, organism-based; details: time 21.0 day
Mus musculus [36] = assay: Immunomodulatory activity in iv dosed BALB/c mouse xenografted with mouse 4T1 cells assessed as macrophage polarization by measuring increase in proportion of M1 macrophages administered for 21 days by CyTOF analysis; assay type: functional, organism-based; details: time 21.0 day
Mus musculus [37] = assay: Immunomodulatory activity in iv dosed BALB/c mouse xenografted with mouse 4T1 cells assessed as macrophage polarization by measuring proportion of M2 macrophages administered for 21 days by CyTOF analysis; assay type: functional, organism-based; details: time 21.0 day
Sarcoma-180 [38] = assay: Antitumor activity against Sarcoma-180 mouse model assessed as tumor weight at 2 umol/kg (reference value: 1.65 +/-0.2 gms); assay type: functional; details: dose 2 µmol/kg
Sarcoma-180 [39] = assay: Antitumor activity against Sarcoma-180 mouse model assessed as inhibition of tumor growth at 2 umol/kg; assay type: functional

Structure (SMILES): N=C(CCl)NCCC[C@H](NC(=O)c1cc(B(O)O)cc([N+](=O)[O-])c1)C(=O)NCc1ccccc1
pIC50 (4T1 [1]): < 4.00
Activity (Sarcoma-180 [2]): 1.19 g
inhibition in vivo at 10 µmol/kg (Sarcoma-180 [3]): 27.6%

Drug uptake [5]: Not Active
Drug uptake [6]: Active
Drug uptake [10]: Active
inhibition [11]: Active
Drug uptake [12]: Active
Drug uptake [13]: Active
inhibition [14]: Active
inhibition [15]: Active
Structure (SMILES): N=C(CCl)NCCC[C@H](NC(=O)c1cc([N+](=O)[O-])c2nonc2c1)C(=O)NCc1cccc(B(O)O)c1
pIC50 (4T1 [1]): < 4.00
Activity (Sarcoma-180 [2]): 0.84 g
inhibition in vivo at 10 µmol/kg (Sarcoma-180 [3]): 49.2%
Activity (Lewis lung carcinoma): inactive
Activity (4T1 [4]): inactive
Activity (L02): Non-Toxic
Activity (4T1 [7]): Active
Activity (4T1 [8]): Active
Activity (4T1 [9]): Active
Activity (4T1 [16]): Active
Activity (4T1 [17]): Active
Activity [18]: Non-Toxic
Activity (4T1 [19]): Active
Activity (4T1 [20]): Active
Activity (4T1 [21]): Active
Activity (4T1 [22]): inactive
Activity (4T1 [23]): inactive
Activity (4T1 [24]): Active
Activity (4T1 [25]): Active
Activity [26]: Non-Toxic
Activity [27]: Non-Toxic
Activity [28]: Non-Toxic
Activity [29]: Non-Toxic
Activity [30]: Non-Toxic
Activity [31]: Non-Toxic
Activity [32]: Non-Toxic
Activity [33]: Non-Toxic
Activity (Mus musculus [34]): Active
Activity (Mus musculus [35]): Active
Activity (Mus musculus [36]): Active
Activity (Mus musculus [37]): inactive

Structure (SMILES): COc1cccc2c1C(=O)c1c(O)c3c(c(O)c1C2=O)C[C@@](O)(C(=O)CO)C[C@@H]3O[C@H]1C[C@H](N)[C@H](O)[C@H](C)O1 [DOXORUBICIN]
pIC50 (4T1 [1]): 5.79
Activity (Sarcoma-180 [38]): 0.94 g
inhibition in vivo at 2 µmol/kg (Sarcoma-180 [39]): 42.7%

Structure (SMILES): N=C(CCl)NCCC[C@H](NC(=O)c1ccc(F)c(B(O)O)c1)C(=O)NCc1ccccc1
pIC50 (4T1 [1]): < 4.00
Activity (Sarcoma-180 [2]): 1.03 g
inhibition in vivo at 10 µmol/kg (Sarcoma-180 [3]): 37.5%

Structure (SMILES): N=C(CCl)NCCC[C@H](NC(=O)c1ccccc1B(O)O)C(=O)NCc1ccccc1
pIC50 (4T1 [1]): < 4.00
Activity (Sarcoma-180 [2]): 1 g
inhibition in vivo at 10 µmol/kg (Sarcoma-180 [3]): 39.2%

Structure (SMILES): N=C(CCl)NCCC[C@H](NC(=O)c1cccc(B(O)O)c1F)C(=O)NCc1ccccc1
pIC50 (4T1 [1]): < 4.00
Activity (Sarcoma-180 [2]): 0.93 g
inhibition in vivo at 10 µmol/kg (Sarcoma-180 [3]): 43.7%
